According to ChEMBL document CHEMBL1132735, “Synthesis and biological evaluation of L- and D-configuration 1,3-dioxolane 5-azacytosine and 6-azathymine nucleosides” (Bioorg Med Chem Lett, 2000):

How the values were obtained:
Human alphaherpesvirus 1 = assay: Concentration required to inhibit 50% of HSV-1 replication; type: functional, organism-based
MT2 = assay: Concentration required to inhibit 50% of host cell replication in MT-2 cells used against HIV studies; type: functional, cell-based; conditions: Homo sapiens
HepG2 = assay: Concentration required to inhibit 50% of host cell replication in human hepatoma (2.2.15) cells used against HBV studies; type: functional, cell-based
Human alphaherpesvirus 2 = assay: Concentration required to inhibit 50% of HSV-2 replication; type: functional, organism-based
P388 = assay: Concentration required to inhibit 50% of P388 cell replication, tested up to a concentration of 100 uM; type: functional, cell-based; conditions: Mus musculus
Hepatitis B virus = assay: Concentration required to inhibit 50% of Hepatitis B virus replication; type: functional, organism-based
L1210 = assay: Concentration required to inhibit 50% of leukemia L1210 cell replication, tested up to a concentration of 100 uM; type: functional, cell-based; conditions: Mus musculus
Vero = assay: Concentration required to inhibit 50% of host cell replication in Vero cell used against HSV-1 and HSV-2 studies; type: functional, cell-based; conditions: Chlorocebus sabaeus
B16-F10 = assay: Concentration required to inhibit 50% of B16F10 cell replication, tested up to a concentration of 100 uM; type: functional, cell-based; conditions: Mus musculus
CCRF-CEM = assay: Concentration required to inhibit 50% of CCRF-CEM cell replication, tested up to a concentration of 100 uM; type: functional, cell-based; conditions: Homo sapiens
[1] = system: Human immunodeficiency virus 1; assay: Concentration required to inhibit 50% of HIV-IIIB virus replication; type: functional, organism-based

| Compound | EC50 (Human alphaherpesvirus 1) | EC50 (Human alphaherpesvirus 2) | EC50 (P388) | EC50 (Hepatitis B virus) | EC50 (L1210) | EC50 (B16-F10) | EC50 (CCRF-CEM) | EC50 [1] | IC50 (MT2) | IC50 (HepG2) | IC50 (Vero) |
| --- | --- | --- | --- | --- | --- | --- | --- | --- | --- | --- | --- |
| Cc1nn(C[C@@H]2CO[C@H](CO)O2)c(=O)[nH]c1=O | > 50 µM | > 50 µM | > 100 µM | > 20 µM | > 100 µM | > 100 µM | > 100 µM | > 100 µM | > 100 µM | > 50 µM | > 50 µM |
| Cc1nn(C[C@@H]2CO[C@@H](CO)O2)c(=O)[nH]c1=O | > 50 µM | > 50 µM | > 100 µM | > 20 µM | > 100 µM | > 100 µM | > 100 µM | > 100 µM | > 100 µM | > 50 µM | > 50 µM |
| Nc1ncn(C[C@@H]2CO[C@@H](CO)O2)c(=O)n1 | > 50 µM | > 50 µM | 70 µM | > 20 µM | 80 µM | 80 µM | 70 µM | > 100 µM | 27 µM | 25 µM | 28 µM |
| Nc1ncn(C[C@@H]2CO[C@H](CO)O2)c(=O)n1 | 32 µM | > 50 µM | 90 µM | 0.6 µM | 70 µM | 70 µM | 20 µM | 5 µM | 17 µM | 17 µM | 12 µM |
| Cc1nn(C[C@H]2CO[C@@H](CO)O2)c(=O)[nH]c1=O | > 50 µM | > 50 µM | > 100 µM | > 20 µM | > 100 µM | > 100 µM | > 100 µM | > 100 µM | > 100 µM | > 50 µM | > 50 µM |
| Cc1nn(C[C@H]2CO[C@H](CO)O2)c(=O)[nH]c1=O | > 50 µM | > 50 µM | > 100 µM | > 20 µM | > 100 µM | > 100 µM | > 100 µM | > 100 µM | > 100 µM | > 50 µM | > 50 µM |
| Nc1ncn(C[C@H]2CO[C@H](CO)O2)c(=O)n1 | > 50 µM | > 50 µM | 65 µM | 6.5 µM | 70 µM | 70 µM | 30 µM | > 100 µM | 18 µM | 17 µM | 31 µM |
| Nc1nc2c(ncn2COCCO)c(=O)[nH]1 [ACYCLOVIR] | 23 µM | 35 µM | – | – | – | – | – | – | – | – | > 50 µM |

More lines, main results first:

| EC50 (Human alphaherpesvirus 1) | EC50 (Human alphaherpesvirus 2) | EC50 (P388) | EC50 (Hepatitis B virus) | EC50 (L1210) | EC50 (B16-F10) | EC50 (CCRF-CEM) | EC50 [1] | Compound | IC50 (MT2) | IC50 (HepG2) | IC50 (Vero) |
| --- | --- | --- | --- | --- | --- | --- | --- | --- | --- | --- | --- |
| > 50 µM | > 50 µM | 70 µM | 6.3 µM | 90 µM | 60 µM | 80 µM | 1 µM | Nc1ncn(C[C@H]2CO[C@@H](CO)O2)c(=O)n1 | 32 µM | 27 µM | 30 µM |
| – | – | – | > 20 µM | – | – | – | 0.6 µM | Cc1cn([C@H]2C=C[C@@H](CO)O2)c(=O)[nH]c1=O [STAVUDINE] | > 100 µM | – | – |
| – | – | – | 2.3 µM | – | – | – | – | Nc1ccn([C@H]2CC[C@@H](CO)O2)c(=O)n1 [ZALCITABINE] | – | > 37 µM | – |
